Consider 4 compounds from patent US20250042961A1, “P53 PEPTIDOMIMETIC MACROCYCLES” (MERCK SHARP & DOHME LLC, priority 2021, published 2025).

Data set [1] concerns Jump-In T-REx CHO-K1 BLA cells. The experiment in a line: Tetracycline beta-lactamase reporter gene cellular assay (counterscreen). It is filed as cell-based. As to the method: This assay was based on Jump-In™ T-REx™ CHO-K1 BLA cells containing a stably integrated β-lactamase under the control of an inducible cytomegalovirus (CMV) promoter. Cells were maintained in Dulbecco's Minimal Eagle Medium (DMEM) with 10% fetal bovine serum (FBS), Blasticidin, and Penicillin/Streptomycin and then transferred to 1.5 mL freezing vials and stored under liquid nitrogen in growth media containing 5% DMSO. […] Cells were seeded into a 384-well plate at a density of 4000 cells per well. […] The final working concentration of DMSO was 0.5%. β-lactamase activity was detected using the ToxBLAzer Dual Screen (Invitrogen), as per the manufacturer's instructions. Measurements were carried out using the Envision multiplate reader (PerkinElmer). Counterscreen activity was defined as the amount of β-lactamase activity induced by tetracycline. Measurements were taken a minimum of three times (biological replicates) and values are reported as geometric means of the replicates.

Data set [2] deals with p53 responsive β-lactamase reporter in HCT116 cells. Kind of data set: p53 beta-lactamase reporter gene cellular functional assay. Type of data set: cell-based. As to the method: HCT116 cells were stably transfected with a p53 responsive β-lactamase reporter and expanded in McCoy's 5A Medium with 10% fetal bovine serum (FBS), Blasticidin, and Penicillin/Streptomycin and then transferred to 1.5 mL freezing vials and stored under liquid nitrogen in growth media containing 5% DMSO. […] The cells were then seeded into a 384-well plate at a density of 8000 cells per well. […] The final working concentration of DMSO was 0.5%. β-lactamase activity was detected using the ToxBLAzer Dual Screen (Invitrogen), as per the manufacturer's instructions. Measurements were made using the Envision multiplate reader (PerkinElmer). […] Measurements were taken a minimum of three times (biological replicates) and values are reported as geometric means of the replicates.
In general terms: Reporter assays use an easily measured gene product as a stand-in for the process of interest.

Data set [3] deals with T1, MDM2 (1-125) (Homo sapiens, UniProt Q00987).
T1 construct: GST (N); His6 (N); TEV cleavage site ENLYFQG (N); made in house; host or cells: Escherichia coli BL21 (DE3) Rosetta T1R
Kind of data set: Competitive fluorescence anisotropy assay (FP Kd MDM2). It is filed as binding. An excerpt: For use in the peptide binding assay, a human MDM2 1-125 sequence was cloned into a pNIC-GST vector. The TEV (tobacco etch virus) cleavage site was changed from ENLYFQS (SEQ ID NO: 13) to ENLYFQG (SEQ ID NO: 14) to give a fusion protein with the following sequence:
[P] is the protein concentration (MDM2), [L] is the labeled peptide concentration, r is the anisotropy measured, r0 is the anisotropy of the free peptide, rb is the anisotropy of the MDM2-FAM-labeled peptide complex, Kd is the dissociation constant, [L]t is the total FAM labeled peptide concentration, and [P]t is the total MDM2 concentration. […] These values were then used to determine apparent Kd values of the respective competing ligands in subsequent competition assays in fluorescence anisotropy experiments. MDM2 and MDM4 competition experiments were performed with their respective concentrations held constant at 250 nM and 75 nM, in the presence of 50 nM of FAM-labeled 12/1. The competing molecules were then titrated against the complex of the FAM-labeled peptide and protein. Apparent Kd values were determined by fitting the experimental data to the equations shown below:
[L]st and [L]t denote labeled ligand and total unlabeled ligand input concentrations, respectively. Kd2 is the dissociation constant of the interaction between the unlabeled ligand and the protein.
In all competition experiments, it is assumed that [P]t>[L]st, otherwise considerable amounts of free labeled ligand would always be present and would interfere with measurements. Kd1 is the apparent Kd for the labeled peptide used and has been experimentally determined as described in the previous paragraph. The FAM-labeled peptide was dissolved in dimethyl sulfoxide (DMSO) at 1 mM and diluted into experimental buffer. Readings were carried out with an Envision Multilabel Reader (PerkinElmer). Experiments were carried out in PBS (2.7 mM KCl, 137 mM NaCl, 10 mM Na2HPO4 and 2 mM KH2PO4 (pH 7.4)) and 0.1% Tween-20 buffer. All titrations were carried out in triplicate. Curve-fitting was carried out using Prism 4.0 (GraphPad®). […] Negative control titrations of the ligands under investigation were also carried out with the fluorescently labeled peptide (in the absence of MDM2) to ensure no interactions were occurring between the ligands and the FAM-labeled peptide. […] Measurements were taken a minimum of three times (biological replicates) and values are reported as geometric means of the replicates.
On the technique in general: Fluorescence polarisation rises when a labelled molecule tumbles more slowly, as on binding a larger partner.

Data set [4] is described as follows: Solubility (PBS, pH 7).
Data set [5] relates to p53 null Ca Ski. It is filed as cell-based. The note with it: 72 h. An excerpt: (§1) To further establish the impact of the above modification in making cleaner “drug” like compounds, we profiled a set of compounds of the invention in cellular proliferation assays (Table 3).
Data set [6] concerns HCT116. It is filed as cell-based.
Source text: as §1

[7] abbreviates: read-out: Counter screen EC50 (0% FBS, 4 h), 0% FBS, 4 h.
Setting [8] is: read-out: Counter screen EC50 (10% FBS, 16 h), 10% FBS, 16 h.
Where [9] appears, read: read-out: p53 activity EC50 (0% FBS, 4 h), 0% FBS, 4 h.
[10] abbreviates: read-out: p53 activity EC50 (10% FBS, 16 h), 10% FBS, 16 h.

Structures are written as SMILES. pEC50, pKd: −log10 of the molar value. ≈ marks a conversion by molar mass, not a printed value. Where two headings read alike, the source gives them in different places. *1 amine or outer side, *2 acyl side, *3 side chain or, on linkers, in order; H or OH if unused. Where a SMILES comes first, the peptide text is derived from it. Bridges are numbered along the chain shown (N, C = ends). [ ]: non-standard residue; d: D form. ξ: configuration not given here. ξαMeNle(6-ylidene) = CC(CCCC=[*:3])(N[*:1])C(=O)[*:2]; dPhe(4-CF3) = N[C@H](Cc1ccc(C(F)(F)F)cc1)C(=O)O; dTrp(6-F) = N[C@H](Cc1c[nH]c2cc(F)ccc12)C(=O)O Where only a bound is given, the exact number is not on record here.

T1 sequence (Q00987 with tags, fused parts or gaps): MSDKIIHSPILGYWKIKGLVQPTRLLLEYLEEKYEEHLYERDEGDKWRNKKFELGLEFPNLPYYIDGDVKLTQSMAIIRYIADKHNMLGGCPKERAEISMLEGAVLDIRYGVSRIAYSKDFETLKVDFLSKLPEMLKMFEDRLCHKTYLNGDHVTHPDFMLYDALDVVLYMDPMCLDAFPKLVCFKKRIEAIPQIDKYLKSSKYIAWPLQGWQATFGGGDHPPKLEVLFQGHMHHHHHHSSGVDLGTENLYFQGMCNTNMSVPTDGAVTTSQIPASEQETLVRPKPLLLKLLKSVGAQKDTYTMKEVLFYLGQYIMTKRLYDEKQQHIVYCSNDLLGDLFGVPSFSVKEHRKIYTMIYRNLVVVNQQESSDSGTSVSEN

One may read the pEC50 as the EC50 on a negative log10 scale, so that one unit is a factor of ten. Broadly, the pKd is the Kd on a negative log10 scale, so that one unit is a factor of ten. A low value points to a large Kd. For orientation: solubility means the dissolved amount per volume that the medium holds. Higher therefore signals a readily soluble substance. As to `CC(=O)N[C@@H](C(=O)N[C@H](C)C(=O)N[C@H](Cc1c[nH]c2cc(F)ccc12)C(=O)N[C@H](Cc1ccc(O)cc1)C(=O)N[C@H](C)C(=O)NC1(C)CCC/C=C\CCCC(C)(C(=O)N[C@H](CC(C)C)C(=O)N[C@H](CO)C(=O)N[C@H](C)C(=O)N[C@H](C)C(=O)N[C@H](C)C(N)=O)NC(=O)[C@@H](CCC(N)=O)NC(=O)[C@@H](CCC(=O)O)NC(=O)[C@@H](Cc2ccc(C(F)(F)F)cc2)NC1=O)[C@H](C)O.N` (stereo partly drawn) [Compound 3, Acetyl-^DPMI-δ-(6-10 olefinstaple) (D-K9D-Q, D-R12D-S, 3x(D-A)polypeptidetail)-NH2] (Ac-[dT][dA][dTrp(6-F)][dY][dA][ξαMeNle(6-ylidene)][dPhe(4-CF3)][dE][dQ][ξαMeNle(6-ylidene)][dL][dS][dA][dA][dA]-NH2; staple (Z) 6-10), the pEC50 in data set [1] (setting [7]) was less than 4.30; in data set [1] (setting [8]), less than 4.30; in data set [2] (setting [9]), 5.84; in data set [2] (setting [10]), 5.36. Also, in data set [3], the pKd is 8.51. This compound also yielded a solubility in data set [4] of 140 µM.
As to `CC(=O)N[C@@H](C(=O)N[C@H](C)C(=O)N[C@H](Cc1c[nH]c2cc(F)ccc12)C(=O)N[C@H](Cc1ccc(O)cc1)C(=O)N[C@H](C)C(=O)NC1(C)CCC/C=C\CCCC(C)(C(=O)N[C@H](CC(C)C)C(=O)N[C@H](CO)C(=O)N[C@H](C)C(=O)N[C@H](C)C(=O)N[C@H](C)C(=O)N[C@H](C)C(=O)N[C@H](C)C(=O)N[C@H](C)C(N)=O)NC(=O)[C@@H](CCC(N)=O)NC(=O)[C@@H](CCC(=O)O)NC(=O)[C@@H](Cc2ccc(C(F)(F)F)cc2)NC1=O)[C@H](C)O` (stereo partly drawn) [Compound 4, Acetyl-^DPMI-δ-(6-10 olefinstaple) (D-K9D-Q, D-R12D-S, 6x(D-A)polypeptidetail)-NH2] (Ac-[dT][dA][dTrp(6-F)][dY][dA][ξαMeNle(6-ylidene)][dPhe(4-CF3)][dE][dQ][ξαMeNle(6-ylidene)][dL][dS][dA][dA][dA][dA][dA][dA]-NH2; staple (Z) 6-10), the pEC50 in data set [1] (setting [7]) was less than 4.30; in data set [1] (setting [8]), less than 4.30; in data set [2] (setting [9]) it was 6.21; in data set [2] (setting [10]), 6.55; in data set [2] (read-out: p53 activity EC50 (10% FBS, 16 h), 10% FBS, 16 h, listed as compound 4), 6.52; in data set [5], 4.51. For the same compound, the pEC50 in data set [6] (72 h) was 5.83. The “overall improvement of cellular activity compared to parent peptide” value in data set [2] (10% serum) is 100 fold. For the same compound, the “p53 null Ca Ski proliferation % Max (inhibition at maximum concentration)” value in data set [5] was determined as 66%. Also, in data set [6], the “improvement of cell efficacy in HCT116 proliferation versus compound 2” value is “greater than 6 fold”. Besides, the “HCT116 proliferation % Max” value in data set [6] (72 hours, 10% serum) came to 84.5%^. In data set [3], this compound had a pKd of 8.49.
On to `CC(=O)N[C@@H](C(=O)N[C@H](C)C(=O)N[C@H](Cc1c[nH]c2cc(F)ccc12)C(=O)N[C@H](Cc1ccc(O)cc1)C(=O)N[C@H](C)C(=O)NC1(C)CCC/C=C\CCCC(C)(C(=O)N[C@H](CC(C)C)C(=O)N[C@H](CO)C(=O)N[C@H](C)C(=O)N[C@H](C)C(=O)N[C@H](C)C(=O)N[C@H](C)C(=O)N[C@H](C)C(=O)N[C@H](C)C(=O)N[C@H](C)C(=O)N[C@H](C)C(=O)N[C@H](C)C(N)=O)NC(=O)[C@@H](CCC(N)=O)NC(=O)[C@@H](CCC(=O)O)NC(=O)[C@@H](Cc2ccc(C(F)(F)F)cc2)NC1=O)[C@H](C)O` (stereo partly drawn) [Compound 5, Acetyl- ^DPMI-δ-(6-10 olefinstaple) (D-K9D-Q, D-R12D-S, 9x(D-A)polypeptidetail)-NH2] (Ac-[dT][dA][dTrp(6-F)][dY][dA][ξαMeNle(6-ylidene)][dPhe(4-CF3)][dE][dQ][ξαMeNle(6-ylidene)][dL][dS][dA][dA][dA][dA][dA][dA][dA][dA][dA]-NH2; staple (Z) 6-10), for which the negative logarithm of the EC50 (pEC50) is less than 4.30 in data set [1] (setting [7]), less than 4.30 in data set [1] (setting [8]), no more than 4.30 in data set [2] (setting [9]) and less than 4.30 in data set [2] (setting [10]). Moreover, in data set [3], the pKd was 7.66. The same compound yielded a solubility in data set [4] of 16 µM (≈ 35.7 µg/mL).
`CC(=O)N[C@@H](C(=O)N[C@H](C)C(=O)N[C@H](Cc1c[nH]c2cc(F)ccc12)C(=O)N[C@H](Cc1ccc(O)cc1)C(=O)N[C@H](C)C(=O)NC1(C)CCC/C=C\CCCC(C)(C(=O)N[C@H](CC(C)C)C(=O)N[C@H](CO)C(=O)N[C@H](C)C(=O)N[C@H](C)C(=O)N[C@H](C)C(=O)N[C@H](CCC(=O)O)C(=O)N[C@H](C)C(=O)N[C@H](C)C(N)=O)NC(=O)[C@@H](CCC(N)=O)NC(=O)[C@@H](CCC(=O)O)NC(=O)[C@@H](Cc2ccc(C(F)(F)F)cc2)NC1=O)[C@H](C)O` (stereo partly drawn) [Compound 7, Acetyl-^DPMI-δ-(6-10 olefinstaple) (D-K9D-Q, D-R12D-S, 3x(D-Ala)-(D-Glu)-2x(D-Ala)polypeptidetail)-NH2] (Ac-[dT][dA][dTrp(6-F)][dY][dA][ξαMeNle(6-ylidene)][dPhe(4-CF3)][dE][dQ][ξαMeNle(6-ylidene)][dL][dS][dA][dA][dA][dE][dA][dA]-NH2; staple (Z) 6-10): the pEC50 was less than 4.30 in data set [1] (setting [7]), less than 4.30 in data set [1] (setting [8]), 5.85 in data set [2] (setting [9]) and 6.10 in data set [2] (setting [10]). Besides, the pKd in data set [3] was 9.37.
